Laboratory results as given in the METLIN SMRT retention time set (Domingo-Almenara et al. 2019).

Assay: gradient 5% acetonitrile 3 min, to 50% in 2 min, to 85% in 15 min, held 3 min, 100 µL/min
Details: column: Zorbax Extend-C18 2.1 x 50 mm; eluents: water / acetonitrile, 0.1% formic acid
Method in brief: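 Pure standards were analyzed in mixtures of ~100 molecules using HPLC coupled to a quadrupole time-of-flight mass spectrometer, in both positive and negative ionization mode. Separation used a Zorbax Extend-C18 column (2.1 × 50 mm, 1.8 μm) at 100 μL/min, with water and acetonitrile each containing 0.1% formic acid. Dead and dwell volumes were 40 μL and 900 μL, and data were collected over 3 months. Retention time was read from computationally picked adduct peaks, each inspected manually.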

SMILES | RP-LC retention time [s]
Cc1ccc(-n2nnnc2-c2cccnc2)cc1 | 649
Cc1ccc(CN2N=C(C(=O)N3CCOCC3)S(=O)(=O)c3ccc(Cl)cc32)cc1 | 896
O=C(NCCN1CCCCC1)C1CN(S(=O)(=O)c2cccnc2)CC12CCCCC2 (centres undefined) | 613
c1cc(CN2CCN(c3cnn4c(C5CC5)nnc4c3)CC2)cs1 | 558
COc1ccc2c(c1)C1(CCN(C(=O)c3ccc(C)c(F)c3)C1)C(=O)N2 (centres undefined) | 745
Cc1nc(-c2csc(S(=O)(=O)N3CCC(C(=O)NCc4ccc5c(c4)OCO5)CC3)c2)no1 | 832
Cc1ccc(-c2[nH]ncc2CN)cc1C | 586
O=C(Cn1nc(N2CCCC2)c2ccccc2c1=O)Nc1ccc(F)cc1Cl | 1010
CCCNC(=O)N(C1CCOCC1)C1CCN(C(=O)Cc2ccsc2)CC1 | 703
Cc1cccc(Nc2nc(CC(=O)NCCOc3ccc(F)cc3)cs2)n1 | 651
Cc1ccc(C)c(S(=O)(=O)N2[C@H]3CC[C@@H]2c2cnc(-c4ccccc4)nc2C3)c1 | 1230
O=C(CCc1cn(Cc2ccccc2F)c2ccccc12)N1CCN(c2ccccn2)CC1 | 737
COC(=O)c1cnc2nc(C)ccc2c1Nc1ccc(C)c(Cl)c1 | 733
O=C(Nc1cnc(-c2cccc(Cl)c2)nc1)c1cccs1 | 1070
COc1ccc(CCC(=O)N2CCc3cc(-c4csc(C)n4)ccc32)cc1 | 1060
Cc1c(C(=O)N2CCN(C)CC2)cnn1-c1cc(-c2nc(C3CC3)no2)ccn1 | 630
COc1cc(NC(=O)c2sc(-n3cccc3)nc2C(C)C)cc(OC)c1 | 1210
CCOC(=O)N1CCC2(CC1)OC(=O)C(C)=C2C(=O)Nc1ccc(F)cc1F | 840
COc1ccc(-n2nc(C)c3sc(N4CCCC(C(=O)NC5CCCCC5)C4)nc32)cc1 (centres undefined) | 1110

SMILES | RP-LC retention time [s]
CCCCS(=O)(=O)c1cc2c(cc1NC(=O)Cc1ccc(C)cc1)n(C)c(=O)n2C | 931
CC(C)c1cc(C(=O)Nc2cc(F)cc(F)c2)nc2ccnn12 | 1180
COC(=O)C(C)NC(=O)N1CCCN(C2=NS(=O)(=O)C(c3ccccc3)=C2C)CC1 (centres undefined) | 715
CCn1cc(C(=O)Nc2ccc(F)cc2)c2cccnc21 | 824
O=C(c1cc2ccccc2o1)N1CC(c2nc(-c3cccnc3)no2)C1 | 709
CN1C(=O)c2cc(C(=O)NCCc3ccccc3)nn2CC1(C)C(=O)NC1CCCCCC1 (centres undefined) | 795
CCC(CC)NC(=O)C1(CCO)CCN(Cc2ccccc2)C1 (centres undefined) | 618
CC1(C(=O)NCc2ccccc2)CN(S(C)(=O)=O)CC(=O)N1Cc1ccc(Cl)cc1 (centres undefined) | 858
Cn1cc(CC(=O)NCc2cccc(F)c2)c2cccnc21 | 669
Cc1cc(C)c(S(=O)(=O)N2CCC(C(=O)NCc3csc(-c4ccccc4)n3)CC2)c(C)c1 | 1050
O=C(NC1CC1)c1ccc(N2CCC(NCc3ccc(F)c(F)c3)C2)nc1 (centres undefined) | 567
CCOc1ccc(-c2csc(Cc3nc(-c4ccc(OC)cc4)no3)n2)cc1 | 1230
CCn1cnnc1C1CCCCN1S(=O)(=O)c1cccs1 (centres undefined) | 694
CCOc1ccc(C(=O)N(c2ccccc2CC)C2C=CS(=O)(=O)C2)cc1OCC (centres undefined) | 840
O=C(NCC1(c2ccccc2)CCOCC1)C(=O)Nc1cc2c3c(c1)CCC(=O)N3CCC2 | 762
CCc1nc2cc(-c3noc(C4(c5ccccc5)CC4)n3)ccc2o1 | 1220
CCOCC(=O)N1CCC2(CC1)CC(O)(CC)CCO2 (centres undefined) | 614
CC1=C(c2ccc(F)cc2)S(=O)(=O)N=C1N1CCCN(C(=O)c2cccs2)CC1 | 806
Cc1nc(-c2cn(C(C)C)c3ncccc23)sc1C(=O)N1CCN(CC(C)C)CC1 | 661

Continued, values first:

RP-LC retention time [s] | SMILES
1030 | CCc1ccccc1NC(=O)Cn1cnc2c(sc3nc(-c4ccccc4)ccc32)c1=O
760 | O=C(CCc1nc2ccccc2s1)N1CCC(c2noc(-c3ccncc3)n2)C1 (centres undefined)
647 | CC(C)c1nnc2n1CCN(C(=O)c1nn(C)c3ccccc13)C2
575 | Cc1onc(-c2ccncc2)c1C(=O)NCCN(C)C1CCCCC1
732 | Cc1ccc(S(=O)(=O)N(C)c2ccc(OCC(=O)N3CCOCC3)cc2)cc1
824 | O=C(Cn1c(=O)c2cccn2c2ccccc21)Nc1ccccc1F
910 | Cc1ccc(NS(=O)(=O)c2ccc3c(c2)C(=O)N(C)c2ncccc2O3)c(F)c1
932 | COCc1nc(-c2ccc(OC3CCN(C(=O)C4(c5ccccc5)CC4)C3)cc2)no1 (centres undefined)
633 | CCCCN1CCN(S(=O)(=O)c2cc(-c3nnc(C4CC4)o3)co2)CC1
632 | CC[C@@H](CO)Nc1nc(NCc2ccc(-c3ccccn3)cc2)c2ncn(C(C)C)c2n1
594 | O=C(Cc1cccs1)Nc1ccc2c(N3CCCCC3)ncnc2c1
680 | Cc1cc(N2CCN(C(=O)Nc3cccc(F)c3)CC2)nc(N2CCCC2)n1
801 | CCn1ccc(C(=O)Nc2ccccc2)n1
897 | COc1ccccc1-c1nnc(-c2ccc(Cl)c(S(=O)(=O)N3CCOCC3)c2)o1
593 | Cn1cc(CC(=O)NCC2CC2)c2cccnc21
744 | CC(C)NC(=O)CN1C(=O)COc2ccc(C(=O)N3CCc4ccccc4C3)cc21
826 | Cc1noc(CN2N=C(C(=O)N3CCC(C)CC3)S(=O)(=O)c3ccccc32)n1
568 | Cc1cc(N2CCN(C)CC2)n2nc(CN3CCN(c4cccc(Cl)c4)CC3)nc2n1
746 | CCOC(=O)c1[nH]c(C)c(CCC(=O)N2CCCC(C(=O)NC3CCCC3)C2)c1C (centres undefined)
680 | O=C(O)c1nnn(-c2cc(F)cc(F)c2)c1-c1ccccn1
612 | CCc1nn(CC(=O)N2CCN(c3ccccn3)CC2)c(=O)c2cc3sccc3n12
829 | COc1ccc(OC)c(S(=O)(=O)N2C[C@@H](F)C[C@H]2C(=O)N2CCc3ccccc3C2)c1
620 | Cc1cc(=O)n(CC(=O)Nc2ccc(F)c(F)c2)cn1
768 | COc1ccc(CCC(=O)N2CCN(S(=O)(=O)c3cc4c5c(c3)CCC(=O)N5CCC4)CC2)cc1
1320 | CCc1ccccc1NC(=O)c1c(O)c2cccnc2n(-c2cccc(F)c2)c1=O
1040 | CCn1nc(C)n2cc(S(=O)(=O)N3CCC(Cc4ccccc4)CC3)cc2c1=O

RP-LC retention time [s] | SMILES
1090 | CC1CCN(c2cc(-n3cnc(C(=O)N4CCN(c5ccccc5F)CC4)c3)ncn2)CC1
762 | O=C(c1ccccc1F)N1CCN(S(=O)(=O)c2cc3c4c(c2)CCC(=O)N4CCC3)CC1
724 | CCN(CC)C(=O)c1ccc2c(c1)N(CC(=O)NC1CCCCC1)C(=O)CO2
762 | Cc1nc(CCNC(=O)C2CCN(S(=O)(=O)c3ccc(F)c(Cl)c3)CC2)cs1
828 | CCOC(=O)c1nnc2c(-c3ccccc3)c(C)nn2c1N
994 | CC(C)Cn1cc(S(=O)(=O)Nc2cc(F)ccc2F)c2cccnc21
909 | Cc1cccc(OCC(=O)N2CCN(c3cc(=O)n(C(C)C)c(=O)n3C(C)C)CC2)c1
814 | CCOC(=O)c1ccc(NC(=O)NCC(c2cccnc2)c2c[nH]c3ccccc23)cc1 (centres undefined)
786 | Cc1nn(-c2ccccc2)c(C)c1S(=O)(=O)N1CCC(C(=O)N2CCCC2)CC1
712 | CCOc1ccc(NC(=O)c2cnc(N3CCSCC3)nc2N)cc1
616 | CC(=O)N1CCc2cc(-c3ccc(C(=O)NCCCN4CCCCC4C)cc3)ccc21 (centres undefined)
752 | Cc1scc2nc(C3CCC3)nc(N3CCC(C(=O)NC4CCCCC4)CC3)c12
805 | CC(=O)N(CC(=O)N1CCc2sccc2C1COc1ccc(F)cc1)C(C)C (centres undefined)
1060 | CCn1cc(-c2nc(C(=O)Nc3cccc(OC)c3)cs2)c2cccnc21
544 | COc1cccc(N2CC(NC(=O)Nc3cccnc3)CC2=O)c1 (centres undefined)
956 | CN(CCc1noc(-c2ccccc2)n1)C(=O)Nc1ccccc1Br
732 | Cc1ccc(CNC(=O)C2CCN(S(=O)(=O)c3cn(C)cn3)CC2)cc1
986 | Cc1ccccc1-c1noc(Cn2cnc3c(oc4ccccc43)c2=O)n1
943 | Cc1ccccc1NC(=O)c1cn(CC2CCCO2)cc2c(=O)n(-c3ccccc3)nc1-2 (centres undefined)
708 | COCCN1CCCCc2cc(C(N)=O)sc21
958 | Cc1ccc(CNC(=O)C2CCN(c3nccnc3Sc3ccccc3)CC2)o1
971 | CCC1Oc2ccc(S(=O)(=O)N3CCC(C(=O)Nc4ccc(C)cc4Cl)CC3)cc2NC1=O (centres undefined)
647 | Cc1ccn2cc(-c3ccc(NC(=O)c4ccccc4Br)cc3)nc2n1
705 | COc1ccc(C(=O)NC(CC(C)C)C(=O)Nc2nc3ccccc3[nH]2)cc1OC (centres undefined)
1020 | CC(C)CCNC(=O)C1(C)CN(S(=O)(=O)c2ccccc2)CC(=O)N1c1cccc(Cl)c1 (centres undefined)
